According to US4510139A, “Substituted aminobenzamides and their use as agents which inhibit lipoxygenase activity” (Sterling Drug Inc., priority 1984, dated 1985):
pIC50: −log10 of the molar value. Where two headings read alike, the source gives them in different places.

Assays:
[1] = target: T1, cyclooxygenase (Rattus norvegicus, UniProt Q63921); experiment: Inhibition of cyclooxygenase derived from rat basophilic leukemia (RBL-1) cells, product C1 (PGD2); assay type: biochemical; conditions: for inhibition at 1 µM: dose of 1 μM, read-out: % Inhibition of cyclooxygenase (C1) formation
T1 construct: microsomal fraction containing lipoxygenase and cyclooxygenase; endogenous in cells; host or cells: RBL-1 (rat basophilic leukemia) cells, homogenate / microsomal fraction
T1 sequence (Q63921 27-602): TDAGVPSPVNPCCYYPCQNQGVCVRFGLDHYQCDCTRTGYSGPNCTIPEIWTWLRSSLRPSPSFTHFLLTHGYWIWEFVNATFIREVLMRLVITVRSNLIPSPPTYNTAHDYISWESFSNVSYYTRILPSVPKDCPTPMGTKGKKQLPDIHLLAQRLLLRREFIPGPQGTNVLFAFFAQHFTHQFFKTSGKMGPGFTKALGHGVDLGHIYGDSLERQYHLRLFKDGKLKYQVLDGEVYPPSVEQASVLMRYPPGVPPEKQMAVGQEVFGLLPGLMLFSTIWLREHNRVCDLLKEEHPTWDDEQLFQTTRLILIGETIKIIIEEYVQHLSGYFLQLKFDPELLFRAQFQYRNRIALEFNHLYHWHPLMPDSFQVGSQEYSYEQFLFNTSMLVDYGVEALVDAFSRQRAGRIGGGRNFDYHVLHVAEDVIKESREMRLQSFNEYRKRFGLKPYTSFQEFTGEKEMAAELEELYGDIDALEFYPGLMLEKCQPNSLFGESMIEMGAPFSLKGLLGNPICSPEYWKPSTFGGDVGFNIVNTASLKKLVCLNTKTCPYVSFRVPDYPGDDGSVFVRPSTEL
Procedure: (§1) The primary screening test used is a determination of the inhibition of lipoxygenase and cyclooxygenase derived from rat basophilic leukemia (RBL-1) cells. The test was carried out according to the following procedure:
(§2) Single cell suspensions of RBL-1 cells are homogenized to obtain the microsomal fraction containing lipoxygenase and cyclooxygenase. Test compounds are added to the enzyme-containing homogenate for a 5 min preincubation period at 37° C. prior to the addition of ^14 C-arachidonic acid substrate. Following incubation at 37° C. for 15 min, the reaction is stopped by the addition of 2M formic acid and the enzyme-substrate products are extracted into chloroform. An aliquot of the extract is evaporated to dryness, reconstituted in ether to 1/10 original volume, spotted in thin layer chromatography plates and chromatographed. The peak areas of radioactivity representing the products are located by scanning the plates. The quantity of products formed is estimated by measuring the height of the radioactivity peaks observed on the chromatographic scans. Alternatively, the areas of radioactivity are scraped from the plate and the ^14 C quantitated by scintillation counting.

[2] = target: T2, lipoxygenase (Rattus norvegicus, UniProt P12527); experiment: Inhibition of lipoxygenase derived from rat basophilic leukemia (RBL-1) cells, products L1 (5,12-di-HETE) and L2 (5-HETE); assay type: biochemical
T2 construct: microsomal fraction containing lipoxygenase and cyclooxygenase; endogenous in cells; host or cells: RBL-1 (rat basophilic leukemia) cells, homogenate / microsomal fraction
T2 sequence (P12527 1-673): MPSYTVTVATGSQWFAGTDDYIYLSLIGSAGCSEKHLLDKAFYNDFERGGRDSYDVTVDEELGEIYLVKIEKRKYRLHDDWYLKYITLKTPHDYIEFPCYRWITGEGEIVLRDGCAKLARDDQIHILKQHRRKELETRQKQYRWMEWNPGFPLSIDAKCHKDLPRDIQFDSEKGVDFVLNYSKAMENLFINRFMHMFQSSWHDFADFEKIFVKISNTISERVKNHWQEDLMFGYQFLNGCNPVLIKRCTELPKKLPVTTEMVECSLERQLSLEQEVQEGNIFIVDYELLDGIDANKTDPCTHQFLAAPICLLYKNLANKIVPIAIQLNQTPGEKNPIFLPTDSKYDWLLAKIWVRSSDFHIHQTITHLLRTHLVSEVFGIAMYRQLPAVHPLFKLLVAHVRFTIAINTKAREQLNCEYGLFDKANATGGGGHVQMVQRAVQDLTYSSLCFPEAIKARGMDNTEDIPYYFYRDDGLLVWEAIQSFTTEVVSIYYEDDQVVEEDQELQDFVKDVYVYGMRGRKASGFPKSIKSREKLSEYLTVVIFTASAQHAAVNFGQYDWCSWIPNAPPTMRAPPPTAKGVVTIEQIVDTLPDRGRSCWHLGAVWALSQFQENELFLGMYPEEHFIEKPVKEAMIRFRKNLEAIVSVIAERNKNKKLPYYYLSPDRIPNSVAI
Procedure: as §1, §2

[3] = system: SRS-A component of immunologically induced broncho-constriction; experiment: Effect on the SRS-A component of immunologically induced broncho-constriction in guinea pigs; assay type: in vivo; conditions: guinea pig, intravenous
Procedure: The test was carried out according to the following procedure:
Two weeks after immunization with egg albumin, guinea pigs are prepared for bronchoconstriction determination. One hour prior to antigen challenge, each animal is dosed orally with indomethacin and chlorpheniramine. Animals are anesthetized with sodium pentobarbital, the trachea cannulated and the animal artifically respired. Arachidonic acid is administered intravenously prior to antigen challenge. The resulting bronchoconstriction is recorded by the standard lung overflow procedure and the peak increase in intratracheal pressure (mm Hg) over a 10 minute observation period is recorded. Compounds are evaluated for their ability to prevent the increased intratracheal pressure in an experimental group of animals as compared to the medicated (indomethacin+chlorpheniramine+arachidonic acid) control group. The results are expressed in terms of percent inhibition or as ED50 values (effective dose in 50% of the animals).

[4] = read-out: % Inhibition of lipoxygenase (L1) formation
[5] = read-out: % Inhibition of lipoxygenase (L2) formation
[6] = dose of 1 μM, L1 = 5,12-di-HETE, read-out: % Inhibition of lipoxygenase (L1) formation
[7] = dose of 1 μM, L2 = 5-HETE, read-out: % Inhibition of lipoxygenase (L2) formation

Structure (SMILES)	pIC50 [1]	inhibition at 1 µM [1]	pIC50 ([2]; IC50 L1, L1 = 5,12-di-HETE)	pIC50 ([2]; IC50 L2, L2 = 5-HETE)	inhibition at 1 µM [2, 4]	inhibition at 1 µM [2, 5]	percent inhibition of increased intratracheal pressure (bronchoconstriction) ([3]; highest soluble dose (0.1 mg/kg))	ED50 ([3]; Cavia porcellus, read-out: ED50 (effective dose in 50% of the animals))	inhibition at 1 µM [2, 6]	inhibition at 1 µM [2, 7]
O=C(c1ccccc1Nc1ccc(O)cc1)N1CCCCC1 [Example 1(d), 1-[2-(4-Hydroxyphenylamino)benzoyl]piperidine]	< 4.00	0%	5.46	6.22	19%	64%	48%	–	–	–
O=C(NCc1ccccc1)c1ccccc1Nc1ccc(O)cc1 [Example 11(b), 2-(4-Hydroxyphenylamino)-N-benzylbenzamide]	< 6.00	0%	7.15	7.40	87%	96%	–	0.61 mg/kg	–	–
O=C(c1ccccc1Nc1ccc(O)cc1)N1CCOCC1 [Example 16(c), 4-[2-(4-Hydroxyphenylamino)benzoyl]morpholine]	–	1%	–	–	–	–	–	–	37%	42%
CCN(C)C(=O)c1ccccc1Nc1ccc(O)cc1 [Example 13(b), 2-(4-Hydroxyphenylamino)-N-ethyl-N-methylbenzamide]	–	0%	–	–	–	–	–	–	66%	77%
CNC(=O)c1ccc(Cl)cc1Nc1ccc(O)cc1 [Example 21(b), 4-Chloro-2-(4-hydroxyphenylamino)-N-methylbenzamide]	< 6.00	–	6.44	6.74	–	–	–	–	–	–
CC(C)NC(=O)c1ccccc1Nc1ccc(O)cc1 [Example 9(b), 2-(4-Hydroxyphenylamino)-N-isopropylbenzamide]	–	0%	–	–	–	–	–	–	72%	78%
O=C(c1ccc(Cl)cc1Nc1ccc(O)cc1)N1CCCCC1 [Example 20(b), 1-[4-Chloro-2-(4-hydroxyphenylamino)benzoyl]piperidine]	–	12%	–	–	–	–	–	–	32%	44%
O=C1C=CC(=Nc2ccccc2C(=O)N2CCCCC2)C=C1 [Example 2, 1-{2-[(4-Oxo-2,5-cyclohexadien-1-ylidene)amino]benzoyl}piperidine]	< 6.00	0%	6.35	6.89	68%	82%	–	–	–	–
O=C(c1ccccc1Nc1ccc(O)cc1)N1CCCC1 [Example 4(b), 1-[2-(4-Hydroxyphenylamino)benzoyl]pyrrolidine]	–	0%	–	–	–	–	–	–	41%	52%
